≈ marks a conversion by molar mass, not a printed value.
details: buffer; pH 7.4; 200.0 µM

COc1ccc(F)cc1S(=O)(=O)Nc1ccncc1 and COc1ccc(CNC(=S)NCc2ccc(F)cc2)cc1OC cannot be ordered by solubility kinetic: over 42.3 µg/mL for the first, over 50.2 µg/mL for the second.

Compared with CCN(Cc1ccccc1)C(=O)c1ccc(SC)cc1OC, COc1cc(SC)ccc1C(=O)NCCCn1ccnc1 is higher in solubility kinetic: 45.8 µg/mL (≈ 145 µM) for the first, over 45.8 µg/mL for the second.

First: Cc1nc([N+](=O)[O-])c(SCC(N)=O)n1Cc1ccccc1
Second: CCCCn1c(N)c(NCc2ccccc2)c(=O)[nH]c1=O
The solubility kinetic of the first is higher: over 46 µg/mL for the first, 39.1 µg/mL (≈ 136 µM) for the second.

O=C1CC(Cc2ccccc2)C(=O)N1c1ccccn1 (stereo unspecified) and COc1ccccc1NC(=O)COC(=O)c1ccccn1 cannot be ordered by solubility kinetic: over 39.9 µg/mL for the first, over 42.9 µg/mL for the second.

CCOc1cc(C(=S)N2CCCC2)ccc1O and CCCc1cc(C(=O)N2CCCN(C)CC2)cs1 cannot be ordered by solubility kinetic: over 37.7 µg/mL for the first, over 40 µg/mL for the second.

O=C1CSC(c2cccnc2)N1Cc1cccnc1 (stereo unspecified) and Cc1ccc(COC(=O)NCc2cccnc2)cc1 are within 1.5-fold of each other in solubility kinetic: 40.2 µg/mL (≈ 148 µM) for the first, 35.7 µg/mL (≈ 139 µM) for the second.

First: COc1ccc(Cl)cc1NC(=O)CN1c2ccccc2CC1C (stereo unspecified)
Second: CC1Cc2ccccc2N1C(=O)COC(=O)c1ccc(Cl)nc1 (stereo unspecified)
The solubility kinetic of the first is 5-fold lower: 2.2 µg/mL (≈ 6.65 µM) for the first, 11.1 µg/mL (≈ 33.6 µM) for the second.

Cc1ccc(S(=O)(=O)N2CCC(=O)CC2)cc1 and Cc1ccc(S(=O)(=O)Nc2csc(C)c2C(=O)O)cc1 cannot be ordered by solubility kinetic: over 38 µg/mL for the first, over 46.7 µg/mL for the second.

First: COc1cc(S(=O)(=O)N(C)C2CCCCC2)c(C)cc1C
Second: O=S(=O)(c1cccs1)N1CN(C2CCCC2)c2nc3ccccc3nc21
The solubility kinetic of the first is 5.4-fold lower: 1.5 µg/mL (≈ 4.82 µM) for the first, 8.1 µg/mL (≈ 21 µM) for the second.

CC(O)CNC(=O)Cc1cc(=O)[nH]c(=O)[nH]1 (stereo unspecified) and CC(O)CNc1nc2c(c(=O)n(Cc3cccc(Cl)c3)c(=O)n2C)n1C (stereo unspecified) cannot be ordered by solubility kinetic: over 34.1 µg/mL for the first, 50.5 µg/mL (≈ 134 µM) for the second.

CC1CC(C)CN(C(=O)c2ccc(C#N)cc2)C1 (stereo unspecified) and Cc1ccc(C(=O)NCN2CCN(c3ccccc3)CC2)cc1 cannot be ordered by solubility kinetic: over 36.3 µg/mL for the first, over 46.4 µg/mL for the second.

First: Cc1cc(NC(=O)CN2CCN(C)CC2)no1
Second: Cc1cc(NC(=O)CCCn2cnc([N+](=O)[O-])n2)no1
The solubility kinetic of the first is lower: 22.4 µg/mL (≈ 94 µM) for the first, over 42 µg/mL for the second.

Compared with COc1ccc(C(N)=O)c(OCC(=O)Nc2cc(C)on2)c1, Cc1ccnc(NC(=O)COc2ccc3c(c2)CCC3)c1 is 6.9-fold lower in solubility kinetic: 11 µg/mL (≈ 36 µM) for the first, 1.6 µg/mL (≈ 5.67 µM) for the second.

Compared with CN(Cc1ccco1)C(=O)CN1C(=O)NC2(CCCC2)C1=O, CCOC(=O)CN1C(=O)SC(Nc2ccc(C)cc2)C1=O (stereo unspecified) is higher in solubility kinetic: 43 µg/mL (≈ 141 µM) for the first, over 46.3 µg/mL for the second.

O=C(COC(=O)Cc1ccc(Br)cc1)NC1CCCC1 and O=C(COC(=O)CSc1ccc(Cl)cc1)Nc1ccccc1 cannot be ordered by solubility kinetic: over 51 µg/mL for the first, over 50.4 µg/mL for the second.

First: CC(C)Oc1ccc(C(=O)Nc2ccc([N+](=O)[O-])cc2)cc1
Second: N/C(=N\OC(=O)c1cccc(Br)c1)c1ccc([N+](=O)[O-])cc1
The solubility kinetic of the first is lower: under 0.3 µg/mL for the first, 1.4 µg/mL (≈ 3.84 µM) for the second.

COc1ccc(NC(=S)Nc2cc(C(F)(F)F)ccc2F)cc1 and COC(=O)c1ccc(Nc2cc(C)nc3ccc(C)cc23)cc1.Cl are within 1.5-fold of each other in solubility kinetic: 8.7 µg/mL (≈ 25.3 µM) for the first, 8 µg/mL for the second.

CC(=O)Nc1cc(Br)ccc1O and C/C(=C\C(=O)Nc1cscc1C)C(=O)O are within 1.5-fold of each other in solubility kinetic: 32.6 µg/mL (≈ 142 µM) for the first, 28.2 µg/mL (≈ 125 µM) for the second.

Compared with CC(C1CC1)N(Cc1ccccc1)C(=S)Nc1ccccc1Cl (stereo unspecified), O=C(/C=C/c1ccccc1)NCCc1nc2ccccc2[nH]1 is 22-fold higher in solubility kinetic: 1.1 µg/mL (≈ 3.19 µM) for the first, 23.7 µg/mL (≈ 81.3 µM) for the second.

CC1(C)C2CCC(C2)C1(C)NC(=O)C[N+](C)(C)C.[Cl-] (stereo unspecified) and CC1(C(=O)O)CCC(C(N)=O)C1(C)C (stereo unspecified) cannot be ordered by solubility kinetic: 43.2 µg/mL for the first, over 29.9 µg/mL for the second.

Going from Cc1ccsc1-c1nc(CN2CCCC2c2ccc(F)cc2)c(C)o1 (stereo unspecified) to O=C(Nc1ccc(F)cc1)c1ccc(CSc2ccc(Cl)cc2)o1, the solubility kinetic falls from 14.9 µg/mL (≈ 41.8 µM) to 4.3 µg/mL (≈ 11.9 µM) (3.5-fold).

First: Cc1cnc(C(=O)Oc2cccc(Cl)c2Cl)cn1
Second: Cc1cnc(C(=O)OCC(=O)NC(C)c2ccccc2)cn1 (stereo unspecified)
The solubility kinetic of the first is lower: 35.4 µg/mL (≈ 125 µM) for the first, over 44.9 µg/mL for the second.

CC1CCCC(C)N1C(=O)COC(=O)c1cccs1 (stereo unspecified) and NC(=O)Nc1ccc(C(=O)OCC(=O)N2CCCC2=O)cc1 cannot be ordered by solubility kinetic: over 42.2 µg/mL for the first, over 45.8 µg/mL for the second.

Going from Nc1nccc(-c2cc(-c3ccc(Cl)cc3Cl)no2)n1 to COc1nc(-c2ccc(Cl)cc2Cl)nc2ccccc12, the solubility kinetic falls from 0.7 µg/mL (≈ 2.28 µM) to under 0.3 µg/mL.

Going from NC(=O)CSc1ccc(S(=O)(=O)N2CCCCC2)cn1 to COc1ccc(OC)c(NC(=O)COC(=O)CCc2ccc(S(=O)(=O)N3CCOCC3)cc2)c1, the solubility kinetic falls from 44.6 µg/mL (≈ 141 µM) to 29 µg/mL (≈ 58.9 µM) (1.5-fold).

First: O=C(COC(=O)C12CC3CC(CC(Br)(C3)C1)C2)Nc1c(F)cccc1F
Second: CN(C)c1cccc(N(C)C)c1CNC(=O)NC(=O)c1c(F)cccc1F
The solubility kinetic of the first is 54-fold higher: 16.1 µg/mL (≈ 37.6 µM) for the first, 0.3 µg/mL (≈ 0.797 µM) for the second.

Going from Cc1ccc2c(N)c(C(=O)c3ccccc3)sc2n1 to Cc1csc(Nc2ccc(Cl)cc2)n1, the solubility kinetic rises from 3.1 µg/mL (≈ 11.6 µM) to 10.5 µg/mL (≈ 46.7 µM) (3.4-fold).

Cc1cc(NS(=O)(=O)c2ccc(C(C)C)cc2)no1 and CN(C)S(=O)(=O)c1ccc(NC=O)cc1 cannot be ordered by solubility kinetic: 40.2 µg/mL (≈ 143 µM) for the first, over 34.2 µg/mL for the second.

Going from CCOc1ccc(NC(=O)CN2CCc3ccccc3C2)cc1 to O=C(Nc1ccc2c(c1)CCC2)c1ncoc1-c1ccccc1F, the solubility kinetic falls from 34 µg/mL (≈ 110 µM) to under 0.3 µg/mL.

First: O=[N+]([O-])c1ccc(NCCN2CCOCC2)c([N+](=O)[O-])c1
Second: COc1cc(-c2cc(C(=O)Nc3ccc(C)c(S(=O)(=O)N4CCOCC4)c3)c3ccccc3n2)cc(OC)c1OC
The solubility kinetic of the first is higher: over 44.4 µg/mL for the first, 6.7 µg/mL (≈ 11.6 µM) for the second.

Compound COC(OC)c1ccnc(-c2ccc(OC(C)=O)cc2)n1 has a solubility kinetic of over 43.2 µg/mL.
